Assay results as given in US10072017B2, “Compounds and methods for the treatment of cystic fibrosis” (Flatley Discovery Lab, LLC, priority 2015, dated 2018).

Target: T1, CFTR (Homo sapiens, UniProt P13569, DEL508-508)
T1 construct: Primary CF airway epithelial cells were obtained from the UNC Cystic Fibrosis Tissue Procurement and Cell Culture Core; host or cells: primary CF airway epithelial cells
Experiment: Equivalent current assay in Primary CF airway epithelial cells (NAUC)
Assay type: cell-based
Conditions: 24 h, normalized to VX809 (3 μM) positive control; for Nauc @ 3 μM: 3 μM test compound; for Nauc @ 10 μM: 10 μM test compound
In short: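 NAUC is the area under the curve from forskolin (10 μM) plus VX770 (1 μM) addition to CFTR-172 (20 μM) block, after benzamil (5 μM). It is corrected for vehicle and scaled to 3 μM VX809 as 1.0 and DMSO as 0.0. Cells were exposed for 24 h to compounds with VX809; medians of ≥4 replicates were fitted sigmoidally.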

T1 sequence (P13569 with tags, fused parts or gaps DEL508-508): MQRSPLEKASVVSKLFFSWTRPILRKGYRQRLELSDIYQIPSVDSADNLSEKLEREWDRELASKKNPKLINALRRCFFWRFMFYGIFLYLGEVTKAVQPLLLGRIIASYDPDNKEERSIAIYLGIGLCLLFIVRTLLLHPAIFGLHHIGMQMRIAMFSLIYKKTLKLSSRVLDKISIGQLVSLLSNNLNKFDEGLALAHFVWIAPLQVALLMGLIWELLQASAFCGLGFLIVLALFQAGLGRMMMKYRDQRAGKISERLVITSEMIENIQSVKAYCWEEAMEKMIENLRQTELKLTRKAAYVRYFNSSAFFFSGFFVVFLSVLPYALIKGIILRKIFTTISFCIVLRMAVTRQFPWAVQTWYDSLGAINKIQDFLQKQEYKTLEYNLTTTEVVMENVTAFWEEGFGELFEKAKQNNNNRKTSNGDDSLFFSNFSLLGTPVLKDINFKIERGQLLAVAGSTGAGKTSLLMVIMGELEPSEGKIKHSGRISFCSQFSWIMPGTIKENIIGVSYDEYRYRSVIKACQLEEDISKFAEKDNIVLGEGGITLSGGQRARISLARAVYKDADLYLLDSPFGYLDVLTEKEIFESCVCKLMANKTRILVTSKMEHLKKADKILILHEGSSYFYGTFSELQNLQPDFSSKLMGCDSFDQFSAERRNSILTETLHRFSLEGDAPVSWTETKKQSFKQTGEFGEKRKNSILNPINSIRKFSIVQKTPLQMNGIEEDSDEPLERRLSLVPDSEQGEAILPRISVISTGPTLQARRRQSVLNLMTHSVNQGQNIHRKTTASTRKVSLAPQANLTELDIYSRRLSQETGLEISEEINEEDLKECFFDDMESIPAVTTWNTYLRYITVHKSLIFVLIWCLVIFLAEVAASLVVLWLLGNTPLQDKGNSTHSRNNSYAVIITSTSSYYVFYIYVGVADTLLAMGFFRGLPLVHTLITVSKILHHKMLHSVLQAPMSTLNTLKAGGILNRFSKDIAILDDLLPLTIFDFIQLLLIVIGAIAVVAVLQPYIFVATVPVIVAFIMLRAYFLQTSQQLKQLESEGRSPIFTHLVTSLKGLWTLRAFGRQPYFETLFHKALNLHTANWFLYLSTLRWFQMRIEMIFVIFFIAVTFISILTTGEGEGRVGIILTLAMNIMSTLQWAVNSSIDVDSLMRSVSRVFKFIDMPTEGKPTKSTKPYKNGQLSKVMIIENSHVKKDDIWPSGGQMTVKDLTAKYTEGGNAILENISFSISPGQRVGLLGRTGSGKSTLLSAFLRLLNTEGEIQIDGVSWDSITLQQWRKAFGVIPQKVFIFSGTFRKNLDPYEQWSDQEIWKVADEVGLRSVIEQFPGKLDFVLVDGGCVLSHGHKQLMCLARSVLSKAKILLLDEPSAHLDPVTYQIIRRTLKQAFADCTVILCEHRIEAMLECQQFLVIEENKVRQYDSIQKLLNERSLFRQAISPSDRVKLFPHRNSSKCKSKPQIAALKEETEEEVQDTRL

Compound | Nauc @ 3 μM | Nauc @ 10 μM
O=C1C2CN(C3CCCC3)C3(C(=O)Nc4c(Cl)cc(Cl)cc43)C2C(=O)N1c1cc(Cl)cc(Cl)c1 (centres unmarked) [Example 32] | ++ (NAUC “++” refers to an observed NAUC 170-140% of positive control) | +++ (NAUC “+++” refers to an observed NAUC >170% of positive control)
CC1(C)CC2C3C(=O)N(c4cc(Cl)cc(Cl)n4)C(=O)C3C3(C(=O)Nc4c(Cl)cc(Cl)cc43)N2C1 (centres unmarked) [Example 175] | +++ (NAUC “+++” refers to an observed NAUC >170% of positive control) | +++ (NAUC “+++” refers to an observed NAUC >170% of positive control)
COC(=O)c1cccc(N2C(=O)C3C4CCCN4C4(C(=O)Nc5c(Cl)cc(Cl)cc54)C3C2=O)c1 (centres unmarked) [Example 66] | ++ (NAUC “++” refers to an observed NAUC 170-140% of positive control) | ++ (NAUC “++” refers to an observed NAUC 170-140% of positive control)
[2H]C12C(=O)N(c3cc(Cl)cc(Cl)c3)C(=O)C1([2H])C1(C(=O)Nc3c(Cl)cc(Cl)cc31)N1C[C@@H](O)CC12 (single isomer, unassigned) [Example 5, (7′S)-5,7-Dichloro-2′-(3,5-dichlorophenyl)-7′-hydroxy-3a′,6′,7′,8′,8a′,8b′-hexahydro-1′H-spiro[indoline-3,4′-pyrrolo[3,4-a]pyrrolizine]-1′,2,3′(2′H)-trione-3a′,8b′-d2] | +++ (NAUC “+++” refers to an observed NAUC >170% of positive control) | +++ (NAUC “+++” refers to an observed NAUC >170% of positive control)
O=C1C2C3C[C@H](O)CN3C3(C(=O)Nc4c(Cl)cc(Cl)cc43)C2C(=O)N1c1cc(Cl)c(OC(F)F)c(Cl)c1 (some centres unmarked) [Example 244] | ++ (NAUC “++” refers to an observed NAUC 170-140% of positive control) | ++ (NAUC “++” refers to an observed NAUC 170-140% of positive control)
O=C1C2C3CC4(CN3C3(C(=O)Nc5c(Cl)cc(Cl)cc53)C2C(=O)N1c1cc(Cl)cc(Cl)c1)OCCO4 (centres unmarked) [Example 169] | + (NAUC “+” refers to an observed NAUC <140% of positive control) | ++ (NAUC “++” refers to an observed NAUC 170-140% of positive control)
CC1(C)CC2C3C(=O)N(c4cc(Cl)cc(Cl)c4)C(=O)C3C3(C(=O)Nc4c(Cl)cc(Cl)cc43)N2C1 (single isomer, unassigned) [Example 119] | +++ (NAUC “+++” refers to an observed NAUC >170% of positive control) | +++ (NAUC “+++” refers to an observed NAUC >170% of positive control)
C[C@]1(OCc2ccccc2)CC2C3C(=O)N(c4cc(Cl)cc(Cl)c4)C(=O)C3C3(C(=O)Nc4c(Cl)cc(Cl)cc43)N2C1 (single isomer, unassigned) [Example 241] | +++ (NAUC “+++” refers to an observed NAUC >170% of positive control) | +++ (NAUC “+++” refers to an observed NAUC >170% of positive control)
O=C1C2C3CCCN3C3(C(=O)Nc4ccc(C(F)(F)F)cc43)C2C(=O)N1c1cc(Cl)cc(Cl)n1 (centres unmarked) [Example 102] | + (NAUC “+” refers to an observed NAUC <140% of positive control) | ++ (NAUC “++” refers to an observed NAUC 170-140% of positive control)
O=C1C2C3C[C@H](O)CN3C3(C(=O)Nc4c(Cl)cc(Cl)cc43)C2C(=O)N1c1cc(C(F)(F)F)cc(C(F)(F)F)c1 (single isomer, unassigned) [Example 62] | ++ (NAUC “++” refers to an observed NAUC 170-140% of positive control) | ++ (NAUC “++” refers to an observed NAUC 170-140% of positive control)
O=C1C2C3CCCN3C3(C(=O)Nc4ccc(Cl)cc43)C2C(=O)N1c1cc(Cl)cc(Cl)c1 (centres unmarked) [Example 85] | ++ (NAUC “++” refers to an observed NAUC 170-140% of positive control) | +++ (NAUC “+++” refers to an observed NAUC >170% of positive control)
O=C1C2C3C[C@H](CF)CN3C3(C(=O)Nc4c(Cl)cc(Cl)cc43)C2C(=O)N1c1cc(Cl)cc(Cl)c1 (some centres unmarked) [Example 109] | ++ (NAUC “++” refers to an observed NAUC 170-140% of positive control) | ++ (NAUC “++” refers to an observed NAUC 170-140% of positive control)
O=C1C2C(Cc3cccc(O)c3)NC3(C(=O)Nc4c(Cl)cc(Cl)cc43)C2C(=O)N1c1cc(Cl)cc(Cl)c1 (centres unmarked) [Example 202] | + (NAUC “+” refers to an observed NAUC <140% of positive control) | ++ (NAUC “++” refers to an observed NAUC 170-140% of positive control)
O=C1C2C3CCCN3C3(C(=O)Nc4c(Cl)cc(Cl)cc43)C2C(=O)N1c1cccc(C(F)(F)F)n1 (centres unmarked) [Example 251] | +++ (NAUC “+++” refers to an observed NAUC >170% of positive control) | +++ (NAUC “+++” refers to an observed NAUC >170% of positive control)
O=C1C2C3CCCN3C3(C(=O)Nc4c(Cl)cc(Cl)cc43)C2C(=O)N1c1cccc(Cl)c1 (centres unmarked) [Example 11] | + (NAUC “+” refers to an observed NAUC <140% of positive control) | +++ (NAUC “+++” refers to an observed NAUC >170% of positive control)
O=C1C2C3CC(F)(F)CN3C3(C(=O)Nc4c(Cl)cc(Cl)cc43)C2C(=O)N1c1cc(Cl)cc(Cl)c1 (single isomer, unassigned) [Example 180] | ++ (NAUC “++” refers to an observed NAUC 170-140% of positive control) | + (NAUC “+” refers to an observed NAUC <140% of positive control)
